Literature values as cited in patent publication US20250049738A1, “METHOD OF TREATMENT AND SELECTION OF PATIENTS BENEFITING FROM AGOMELATINE BASED ON EEG MEASUREMENTS” (Alto Neuroscience, Inc., priority 2023, published 2025).

Assays:
depression = details: in vivo; cited from earlier work
circadian rhythm = details: in vivo; cited from earlier work

## COc1ccc2[nH]cc(CCNC(C)=O)c2c1 [melatonin]
depression
  antidepressant efficacy: not an effective antidepressant
Circadian rhythm
  effect on circadian rhythm: phase advance circadian rhythm
